Patent US6603046B1, “Bis-aromatic a,β-unsaturated ketones” (Lica Pharmaceuticals A/S, priority 1992, dated 2003)
Where two headings read alike, the source gives them in different places. Marks after values point to notes of the source that are not given here.

Assays:
P. yoelii strain YM = P. yoelii strain YM infection in mice, parasitemia and mortality (Example 16); type: in vivo, BALB/c mice; conditions: Table 16.12
Eimeria tenella = experiment: Anticoccidial activity in chickens infected with Eimeria tenella (Example 28); type: in vivo; conditions: for feed consumption after 7 days of treatment / feed consumption after 14 days of treatment: amount of feed consumed per kg chicken weight gain, doses as Table 28.1; for Weight gain in 7 days after initiation of treatment / Weight gain in 14 days after initiation of treatment: in feed: salinomycin 70 ppm, 2,5 m4′ac and 2,4 mc 30 mg/kg/day, licochalcone A 10 mg/kg/day; for Mortality: number of chickens, groups of 35, licochalcone A 20
[1] = tested on: chloroquine resistant P. falciparum DD2 strain; experiment: In vitro growth of P. falciparum DD2, 3H-hypoxanthine uptake (Example 15); type: cell-based, Plasmodium falciparum; conditions: title: percentage inhibition of 3H-hypoxanthine uptake
L. major promastigotes = L. major promastigotes from 4-days cultures, 3H-thymidine uptake (Examples 5, 14); type: cell-based, Leishmania major; conditions: Leishmania major, Table 14.1, read-out: percentage inhibition of promastigotes (upper figure); for inhibition at 0.5 µg/mL: 0.5 μg/ml; for inhibition at 1 µg/mL: 1 μg/ml; for inhibition at 5 µg/mL: 5 μg/ml; for inhibition at 10 µg/mL: 10 μg/ml
Procedure, shortened: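 Promastigotes harvested on day 4 of culture were exposed to compound, then pulsed with 100 μC 3H-thymidine for a further 18 h. Cells were collected on filter paper, washed, and incorporated radioactivity counted by scintillation.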

P. falciparum = P. falciparum growth in vitro (Table 14.1, strain not stated); type: cell-based; conditions: Plasmodium falciparum; for inhibition at 1 µg/mL: 1 μg/ml; for inhibition at 5 µg/mL: 5 μg/ml; for inhibition at 10 µg/mL: 10 μg/ml
Procedure: The P. falciparum experimental setup was as described in Example 15.
Testing of the effect of drugs and serum on the in vitro growth of the parasites. The experiments in which compounds were tested for their ability to inhibit parasite growth were performed by a modification of the method originally described by Jensen et al. (1982). Fifty μl of parasitized erythrocytes (parasitemia approximately 1%) in a concentration of 5×10^8/ml and 50 μl of RPMI medium containing different concentrations of the test compound was added to each well of a 96 well flat-bottomed microtiter plate (Nunc). The cultures were then incubated for 48 hours, 24 hours before termination of the culture adding 20 μl of 3-H-hypoxanthine (40 uCi/ml) (New England Nuclear, Boston, Mass., USA) was added to each well. The cultures were then harvested onto glass fiber filters using a Skatron cell harvester (Skatron, Lierbyen, Norway), and the incorporation of 3-H-hypoxanthine into the DNA of dividing parasites was determined by liquid scintillation spectrometry.

human lymphocytes = experiment: Lymphocyte Proliferation Assay, 3H-thymidine incorporation (Example 13); conditions: Homo sapiens, Lymphocyte, read-out: inhibition of lymphocytes (lower figure)
[2] = D + 5, i.p. 40 mg/kg twice daily
[3] = D + 6, i.p. 10 mg/kg twice daily
[4] = D + 6, i.p. 20 mg/kg twice daily
[5] = D + 6, i.p. 30 mg/kg twice daily
[6] = D + 6, i.p. 40 mg/kg twice daily
[7] = D + 8, i.p. 20 mg/kg twice daily
[8] = D + 8, i.p. 30 mg/kg twice daily
[9] = D + 10, i.p. 30 mg/kg twice daily
[10] = 0.5 μg/ml, read-out: inhibition of malaria parasites (middle figure) (converted)
[11] = read-out: inhibition of malaria parasites (middle figure) (converted)

| SMILES | mortality (no. of dead mice/total no. of tested mice) (P. yoelii strain YM; [3]) | % parasitemia (P. yoelii strain YM; [4]) [%] | mortality (no. of dead mice/total no. of tested mice) (P. yoelii strain YM; [4]) | % parasitemia (P. yoelii strain YM; [5]) [%] | mortality (no. of dead mice/total no. of tested mice) (P. yoelii strain YM; [5]) | feed consumption after 7 days of treatment (Eimeria tenella) | feed consumption after 14 days of treatment (Eimeria tenella) | Weight gain in 7 days after initiation of treatment (Eimeria tenella) [grams per chicken] | Weight gain in 14 days after initiation of treatment (Eimeria tenella) | Mortality (Eimeria tenella) | inhibition at 0.5 µg/mL (L. major promastigotes) [%] | inhibition at 1 µg/mL (L. major promastigotes) [%] | inhibition at 5 µg/mL (L. major promastigotes) [%] | inhibition at 10 µg/mL (L. major promastigotes) [%] | inhibition at 1 µg/mL (P. falciparum; [11]) [%] | inhibition at 5 µg/mL (P. falciparum; [11]) [%] | inhibition at 10 µg/mL (P. falciparum; [11]) [%] | inhibition at 1 µg/mL (human lymphocytes) [%] | inhibition at 5 µg/mL (human lymphocytes) [%] | inhibition at 10 µg/mL (human lymphocytes) [%] | other results |
| --- | --- | --- | --- | --- | --- | --- | --- | --- | --- | --- | --- | --- | --- | --- | --- | --- | --- | --- | --- | --- | --- |
| COc1ccc(/C=C/C(=O)c2ccccc2)c(OC)c1 [2,4mc, 2,4-dimethoxychalcone] | (5/5) | 85 | 4/5 | 29 | 3/5 | 1.30 | 1.48 | 380 | 803^ grams per chicken | 1 | – | – | – | – | – | – | – | – | – | – | % parasitemia (P. yoelii strain YM; [2]): 78%; mortality (no. of dead mice/total no. of tested mice) (P. yoelii strain YM; [2]): 4/5; mortality (no. of dead mice/total no. of tested mice) (P. yoelii strain YM; [6]): (5/5); mortality (no. of dead mice/total no. of tested mice) (P. yoelii strain YM; [7]): (5/5); % parasitemia (P. yoelii strain YM; [8]): 15%; mortality (no. of dead mice/total no. of tested mice) (P. yoelii strain YM; [8]): 4/5; % parasitemia (P. yoelii strain YM; [9]): 65%; mortality (no. of dead mice/total no. of tested mice) (P. yoelii strain YM; [9]): 4/5; mortality (no. of dead mice/total no. of tested mice) (P. yoelii strain YM; D + 12, i.p. 30 mg/kg twice daily): (5/5) |
| C=CCOc1ccc(C(=O)/C=C/c2cc(OC)ccc2OC)cc1 [2,5-Dimethoxy-4′-allyloxychalcone, 2,5-dimethoxy-4′-prop-2enyloxychalcone] | (5/5) | 79 | 4/5 | 62 | 3/5 | 1.31 | 1.54 | 366 | 804^ grams per chicken | 2 | – | – | – | – | – | – | – | – | – | – | Growth in % of control (mean ± SEM) ([1]; 0.5 μg/ml): 15.8 ± 13.2%; Growth in % of control (mean ± SEM) ([1]; 1 μg/ml): 12.1 ± 13.7%; Growth in % of control (mean ± SEM) ([1]; 5 μg/ml): 45.3 ± 7.2%; Growth in % of control (mean ± SEM) ([1]; 10 μg/ml): 74.4 ± 4.4%; mortality (no. of dead mice/total no. of tested mice) (P. yoelii strain YM; [6]): (5/5); mortality (no. of dead mice/total no. of tested mice) (P. yoelii strain YM; [7]): (5/5); % parasitemia (P. yoelii strain YM; [8]): 78%; mortality (no. of dead mice/total no. of tested mice) (P. yoelii strain YM; [8]): 4/5; mortality (no. of dead mice/total no. of tested mice) (P. yoelii strain YM; [9]): (5/5) |
| C=CCOc1ccc(C(=O)/C=C/c2c(OC)cccc2OC)cc1 [drawing 83] | – | – | – | – | – | – | – | – | – | – | 11.3 ± 9.8 | 16.3 ± 12.4 | 63.7 ± 24.2 | 91.1 ± 4.1 | 27.4 | 39.7 | 65.7 | 1.3 | 0 | 0 | inhibition at 0.5 µg/mL (P. falciparum; [10]): 0%; inhibition at 0.5 µg/mL (human lymphocytes): 1% |
| C=CCOc1ccc(C(=O)/C=C/c2ccc(OC)c(OC)c2)cc1 [drawing 84] | – | – | – | – | – | – | – | – | – | – | 15.2 ± 11.3 | 30.4 ± 23.2 | 70.4 ± 15.2 | 90.8 ± 9.7 | 11.4 | 22.8 | 68 | 0 | 0 | 15.6 | inhibition at 0.5 µg/mL (P. falciparum; read-out: inhibition of malaria parasites (middle figure)): 2.9% |
| C=CCOc1ccc(C(=O)/C=C/c2cc(OC)cc(OC)c2)cc1 [drawing 85] | – | – | – | – | – | – | – | – | – | – | 10.6 ± 10.7 | 27.6 ± 23.3 | 82.8 ± 10 | 98.3 ± 0.9 | 15.3 | 74.3 | 98.6 | 0 | 4.6 | 25.4 | inhibition at 0.5 µg/mL (P. falciparum; [10]): 13.8%; inhibition at 0.5 µg/mL (human lymphocytes): 0% |
| CC[C@@H](C(=O)[C@@H](C)[C@@H](O)[C@H](C)[C@@H]1O[C@@H]([C@@H](CC)C(=O)O)CC[C@@H]1C)[C@H]1O[C@]2(C=C[C@@H](O)[C@]3(CC[C@@](C)([C@H]4CC[C@](O)(CC)[C@H](C)O4)O3)O2)[C@H](C)C[C@@H]1C [salinomycin, reference compound] | – | – | – | – | – | 1.30 | 1.44 | 425 | 900^a grams per chicken | 0 | – | – | – | – | – | – | – | – | – | – | Difference in weight gain to group 5 (control infected) after treatment for 14 days (Eimeria tenella; normal variation ±2%): ^aDifference between groups 1 (standard feed) and 5 (control infected) after treatment for 14 days is 12%. |
